In patent publication US20230265151A1, “GIP/GLP1 CO-AGONIST COMPOUNDS” (priority 2020, published 2023):
Read-outs that look alike come from different tables or passages of the source. *1 amine or outer side, *2 acyl side, *3 side chain or, on linkers, in order; H or OH if unused. Where a SMILES comes first, the peptide text is derived from it. Side-chain parts run from the residue outwards. [ ]: non-standard residue; d: D form. The star is where a group is joined. αMePhe(2-F) = C[C@](N)(Cc1ccccc1F)C(=O)O; γGlu = O=C(O)[C@H](CCC(=O)[*:2])N[*:1]; αMeY = C[C@](N)(Cc1ccc(O)cc1)C(=O)O; αMeF = C[C@](N)(Cc1ccccc1)C(=O)O; αMeL = CC(C)C[C@](C)(N)C(=O)O; Lauroyl = CCCCCCCCCCCC(=O)*; Orn = NCCC[C@H](N)C(=O)O; AEEA = NCCOCCOCC(=O)O; Aib = CC(C)(N)C(=O)O

Experiments:
Assay type in all cases: cell-based
hGLP-1R = hGLP-1R (Homo sapiens, UniProt P43220); experiment: Functional cAMP formation (HTRF) in HEK-293 clonal cells expressing hGLP-1R, 0.1% bovine casein, without or with 1.0% human serum albumin; design: expressed in transfected cells; conditions: 37° C.; for EC50: geometric mean, read-out: hGLP-1R EC50, nM (SEM, n); for Emax: HEK293, 0.1% bovine casein and 1.0% human serum albumin, percent of maximal response to GLP-1(7-36)NH2, read-out: hGLP-1R Emax, % ± SEM
hGLP-1R, sequence (P43220 24-463): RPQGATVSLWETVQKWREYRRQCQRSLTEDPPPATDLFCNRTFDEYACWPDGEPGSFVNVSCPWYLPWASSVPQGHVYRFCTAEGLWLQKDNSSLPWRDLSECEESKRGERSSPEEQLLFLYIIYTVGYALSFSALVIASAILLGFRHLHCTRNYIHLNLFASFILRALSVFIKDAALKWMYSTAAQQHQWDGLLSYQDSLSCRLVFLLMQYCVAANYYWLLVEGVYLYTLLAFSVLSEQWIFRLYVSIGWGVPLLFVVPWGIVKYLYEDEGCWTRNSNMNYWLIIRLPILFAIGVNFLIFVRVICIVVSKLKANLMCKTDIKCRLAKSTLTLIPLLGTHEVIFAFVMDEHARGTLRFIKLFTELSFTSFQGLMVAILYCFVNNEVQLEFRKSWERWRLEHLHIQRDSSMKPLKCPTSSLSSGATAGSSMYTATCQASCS
Method in brief: (§1)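 Readings of the HTRF 665/620 nm ratio, which falls as cAMP rises, were converted to nM cAMP using a standard curve after 30 min peptide exposure at 37° C.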

hGCGR = molecular target: T1, hGCGR (Homo sapiens, UniProt P47871); experiment: Functional cAMP formation (HTRF) in HEK-293 clonal cells expressing hGCGR, 0.1% bovine casein, without or with 1.0% human serum albumin; conditions: 37° C., geometric mean, read-out: hGCGR EC50, nM (SEM, n)
T1 construct: expressed in transfected cells
T1 sequence (P47871 26-477): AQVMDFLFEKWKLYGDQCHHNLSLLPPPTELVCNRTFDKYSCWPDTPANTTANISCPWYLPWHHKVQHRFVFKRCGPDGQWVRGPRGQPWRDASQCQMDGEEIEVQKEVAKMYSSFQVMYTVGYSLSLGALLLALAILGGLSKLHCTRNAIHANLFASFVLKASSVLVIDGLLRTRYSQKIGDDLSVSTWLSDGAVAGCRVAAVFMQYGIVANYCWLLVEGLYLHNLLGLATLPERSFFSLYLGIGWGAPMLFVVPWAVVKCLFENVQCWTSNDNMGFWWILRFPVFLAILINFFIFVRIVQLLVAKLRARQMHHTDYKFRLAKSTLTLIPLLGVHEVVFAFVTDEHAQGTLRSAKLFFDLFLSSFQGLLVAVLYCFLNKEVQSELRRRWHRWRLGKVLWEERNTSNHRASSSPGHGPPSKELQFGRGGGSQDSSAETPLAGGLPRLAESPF
Method in brief: as §1

hGIPR = molecular target: T2, hGIPR (Homo sapiens, UniProt P48546); experiment: Functional cAMP formation (HTRF) in HEK-293 clonal cells expressing hGIPR, 0.1% bovine casein, without or with 1.0% human serum albumin; conditions: 37° C.; for EC50: geometric mean, read-out: hGIPR EC50, nM (SEM, n); for Emax: percent of maximal response to GIP(1-42)NH2, read-out: hGIPR Emax, % ± SEM
T2 construct: expressed in transfected cells
T2 sequence (P48546 22-466): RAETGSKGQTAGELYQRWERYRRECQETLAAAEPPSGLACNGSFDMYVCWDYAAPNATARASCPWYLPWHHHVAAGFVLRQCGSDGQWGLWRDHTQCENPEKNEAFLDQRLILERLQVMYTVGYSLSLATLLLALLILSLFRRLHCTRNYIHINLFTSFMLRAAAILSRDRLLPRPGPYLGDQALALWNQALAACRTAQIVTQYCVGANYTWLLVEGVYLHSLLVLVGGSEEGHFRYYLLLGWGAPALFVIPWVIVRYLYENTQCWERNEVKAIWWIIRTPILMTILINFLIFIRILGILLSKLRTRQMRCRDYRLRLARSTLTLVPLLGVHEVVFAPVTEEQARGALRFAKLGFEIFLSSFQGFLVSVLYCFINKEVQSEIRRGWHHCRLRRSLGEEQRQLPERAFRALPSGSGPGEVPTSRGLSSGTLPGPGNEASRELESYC
Method in brief: as §1

[1] = 0.1% bovine casein and 1.0% human serum albumin
[2] = cAMP, 0.1% bovine casein (no human serum albumin)
[3] = HEK293, 0.1% bovine casein and 1.0% human serum albumin
[4] = HEK293, cAMP, 0.1% bovine casein, arithmetic mean

SMILES	EC50 (hGLP-1R; [1])	EC50 (hGLP-1R; [2])	EC50 (hGCGR; [1])	EC50 (hGCGR; [2])	EC50 (hGIPR; [1])	EC50 (hGIPR; [2])	Emax (hGLP-1R)	Emax (hGIPR; [3])	Emax (hGIPR; [4])
CCCCCCCCCCCC(=O)N[C@@H](CCC(=O)NCCOCCOCC(=O)NCCOCCOCC(=O)NCCCC[C@H](NC(=O)[C@H](CCCN)NC(=O)[C@H](CC(=O)O)NC(=O)[C@H](CC(C)C)NC(=O)[C@](C)(CC(C)C)NC(=O)[C@@H](NC(=O)[C@H](CO)NC(=O)[C@H](CCCCNC(=O)COCCOCCNC(=O)COCCOCCNC(=O)CC[C@H](NC(=O)CCCCCCCCCCC)C(=O)O)NC(=O)[C@H](CC(=O)O)NC(=O)[C@H](CO)NC(=O)[C@@H](NC(=O)[C@](C)(Cc1ccccc1F)NC(=O)[C@@H](NC(=O)CNC(=O)[C@H](CCC(=O)O)NC(=O)C(C)(C)NC(=O)[C@@H](N)Cc1ccc(O)cc1)[C@@H](C)O)[C@@H](C)O)[C@@H](C)CC)C(=O)N[C@@H](C)C(=O)N[C@@H](CCC(N)=O)C(=O)NC(C)(C)C(=O)N[C@@H](CCC(=O)O)C(=O)N[C@@](C)(Cc1ccccc1)C(=O)N[C@H](C(=O)N[C@H](CCC(=O)O)C(=O)N[C@@](C)(Cc1ccc(O)cc1)C(=O)N[C@@H](CC(C)C)C(=O)N[C@H](C(=O)N[C@@H](CCC(=O)O)C(=O)NCC(=O)NCC(N)=O)[C@@H](C)CC)[C@@H](C)CC)C(=O)O [Example 297] (H-Y[Aib]EGT[αMePhe(2-F)]TSDK([AEEA-AEEA-γGlu-Lauroyl])SI[αMeL]LD[Orn]K([AEEA-AEEA-γGlu-Lauroyl])AQ[Aib]E[αMeF]I[dE][αMeY]LIEGG-NH2)	19.1 nM	0.125 nM	> 9950 nM	> 9950 nM	1.54 nM	0.0112 nM	–	–	–
CCCCCCCCCCCC(=O)N[C@@H](CCC(=O)NCCOCCOCC(=O)NCCOCCOCC(=O)NCCCC[C@H](NC(=O)[C@H](CCCN)NC(=O)[C@H](CC(=O)O)NC(=O)[C@H](CC(C)C)NC(=O)[C@](C)(CC(C)C)NC(=O)[C@@H](NC(=O)[C@H](CO)NC(=O)[C@H](Cc1ccncc1)NC(=O)[C@H](CC(=O)O)NC(=O)[C@H](CO)NC(=O)[C@@H](NC(=O)[C@](C)(Cc1ccccc1F)NC(=O)[C@@H](NC(=O)CNC(=O)[C@H](CCC(=O)O)NC(=O)C(C)(C)NC(=O)[C@@H](N)Cc1ccc(O)cc1)[C@@H](C)O)[C@@H](C)O)[C@@H](C)CC)C(=O)N[C@@H](C)C(=O)N[C@@H](CCC(N)=O)C(=O)NC(C)(C)C(=O)N[C@@H](CCCN)C(=O)N[C@@H](Cc1ccccc1)C(=O)N[C@H](C(=O)N[C@H](CCC(=O)O)C(=O)N[C@@](C)(Cc1ccc(O)cc1)C(=O)N[C@@H](CC(C)C)C(=O)N[C@H](C(=O)N[C@@H](CCCCNC(=O)COCCOCCNC(=O)COCCOCCNC(=O)CC[C@H](NC(=O)CCCCCCCCCCC)C(=O)O)C(=O)NCC(=O)NCC(=O)N1CCC[C@H]1C(=O)N[C@@H](CO)C(=O)N[C@@H](CO)C(=O)NCC(=O)N[C@@H](C)C(=O)N1CCC[C@H]1C(=O)N1CCC[C@H]1C(=O)N1CCC[C@H]1C(=O)N[C@@H](CO)C(N)=O)[C@@H](C)CC)[C@@H](C)CC)C(=O)O [Example 299]	–	0.126 nM	> 9950 nM	> 9950 nM	–	0.0104 nM	–	–	–
CCCCCCCCCCCC(=O)N[C@@H](CCC(=O)NCCOCCOCC(=O)NCCOCCOCC(=O)NCCCC[C@H](NC(=O)[C@H](CCCN)NC(=O)[C@H](CC(=O)O)NC(=O)[C@H](CC(C)C)NC(=O)[C@](C)(CC(C)C)NC(=O)[C@@H](NC(=O)C(C)(C)NC(=O)[C@H](Cc1ccc(O)cc1)NC(=O)[C@H](CC(=O)O)NC(=O)[C@H](CO)NC(=O)[C@@H](NC(=O)[C@](C)(Cc1ccccc1F)NC(=O)[C@@H](NC(=O)CNC(=O)[C@H](CCC(=O)O)NC(=O)C(C)(C)NC(=O)[C@@H](N)Cc1ccc(O)cc1)[C@@H](C)O)[C@@H](C)O)[C@@H](C)CC)C(=O)N[C@@H](C)C(=O)N[C@@H](CCC(N)=O)C(=O)NC(C)(C)C(=O)N[C@@H](CCCCNC(=O)COCCOCCNC(=O)COCCOCCNC(=O)CC[C@H](NC(=O)CCCCCCCCCCC)C(=O)O)C(=O)N[C@@H](Cc1ccccc1)C(=O)N[C@H](C(=O)N[C@H](CCC(=O)O)C(=O)N[C@@](C)(Cc1ccc(O)cc1)C(=O)N[C@@H](CC(C)C)C(=O)N[C@H](C(=O)N[C@@H](CCC(=O)O)C(=O)NCC(=O)NCC(=O)N1CCC[C@H]1C(=O)N[C@@H](CO)C(=O)N[C@@H](CO)C(=O)NCC(=O)N[C@@H](C)C(=O)N1CCC[C@H]1C(=O)N1CCC[C@H]1C(=O)N1CCC[C@H]1C(=O)N[C@@H](CO)C(N)=O)[C@@H](C)CC)[C@@H](C)CC)C(=O)O [Example 300]	–	0.194 nM	> 9950 nM	> 9950 nM	1.25 nM	0.0128 nM	109%	91.5%	–
CCCCCCCCCCCC(=O)N[C@@H](CCC(=O)NCCOCCOCC(=O)NCCOCCOCC(=O)NCCCC[C@H](NC(=O)[C@H](CCCN)NC(=O)[C@H](CC(=O)O)NC(=O)[C@H](CC(C)C)NC(=O)[C@](C)(CC(C)C)NC(=O)[C@@H](NC(=O)C(C)(C)NC(=O)[C@H](Cc1ccc(O)cc1)NC(=O)[C@H](CC(=O)O)NC(=O)[C@H](CO)NC(=O)[C@@H](NC(=O)[C@](C)(Cc1ccccc1F)NC(=O)[C@@H](NC(=O)CNC(=O)[C@H](CCC(=O)O)NC(=O)C(C)(C)NC(=O)[C@@H](N)Cc1ccc(O)cc1)[C@@H](C)O)[C@@H](C)O)[C@@H](C)CC)C(=O)N[C@@H](C)C(=O)N[C@@H](CCC(N)=O)C(=O)NC(C)(C)C(=O)N[C@@H](CCC(=O)O)C(=O)N[C@@H](Cc1ccccc1)C(=O)N[C@H](C(=O)N[C@H](CCC(=O)O)C(=O)N[C@@](C)(Cc1ccc(O)cc1)C(=O)N[C@@H](CC(C)C)C(=O)N[C@H](C(=O)N[C@@H](CCCCNC(=O)COCCOCCNC(=O)COCCOCCNC(=O)CC[C@H](NC(=O)CCCCCCCCCCC)C(=O)O)C(=O)NCC(=O)NCC(=O)N1CCC[C@H]1C(=O)N[C@@H](CO)C(=O)N[C@@H](CO)C(=O)NCC(=O)N[C@@H](C)C(=O)N1CCC[C@H]1C(=O)N1CCC[C@H]1C(=O)N1CCC[C@H]1C(=O)N[C@@H](CO)C(N)=O)[C@@H](C)CC)[C@@H](C)CC)C(=O)O [Example 301]	–	0.175 nM	> 9950 nM	> 9950 nM	–	0.0128 nM	–	85.5%	97.4%
CC[C@H](C)[C@H](NC(=O)[C@H](CCCN)NC(=O)[C@H](CC(=O)O)NC(=O)[C@H](CC(C)C)NC(=O)[C@](C)(CC(C)C)NC(=O)[C@@H](NC(=O)[C@](C)(CO)NC(=O)[C@H](Cc1ccc(O)cc1)NC(=O)[C@H](CC(=O)O)NC(=O)[C@H](CO)NC(=O)[C@@H](NC(=O)[C@](C)(Cc1ccccc1F)NC(=O)[C@@H](NC(=O)CNC(=O)[C@H](CCC(=O)O)NC(=O)C(C)(C)NC(=O)[C@@H](N)Cc1ccc(O)cc1)[C@@H](C)O)[C@@H](C)O)[C@@H](C)CC)C(=O)N[C@@H](C)C(=O)N[C@@H](CCC(N)=O)C(=O)NC(C)(C)C(=O)N[C@@H](CCC(=O)O)C(=O)N[C@@H](Cc1ccccc1)C(=O)N[C@H](C(=O)N[C@@H](CCCCNC(=O)COCCOCCNC(=O)COCCOCCNC(=O)CC[C@H](NC(=O)CCCCCCCCCCCCC(=O)O)C(=O)O)C(=O)N[C@@](C)(Cc1ccc(O)cc1)C(=O)N[C@@H](CC(C)C)C(=O)N[C@H](C(=O)N[C@@H](CCCCNC(=O)COCCOCCNC(=O)COCCOCCNC(=O)CC[C@H](NC(=O)CCCCCCCCCCCCC(=O)O)C(=O)O)C(=O)NCC(=O)NCC(=O)N1CCC[C@H]1C(=O)N[C@@H](CO)C(=O)N[C@@H](CO)C(=O)NCC(=O)N[C@@H](C)C(=O)N1CCC[C@H]1C(=O)N1CCC[C@H]1C(=O)N1CCC[C@H]1C(=O)N[C@@H](CO)C(N)=O)[C@@H](C)CC)[C@@H](C)CC [Example 303]	–	0.389 nM	> 9950 nM	> 9950 nM	–	0.0178 nM	111%	89.8%	100%
